ChEMBL document CHEMBL3856205, “Synthesis and biological evaluation of novel 4-hydroxytamoxifen analogs as estrogen-related receptor gamma inverse agonists” (Eur J Med Chem, 2016)
One block for each compound: values may come before it.

What was measured:
[1] = molecular target: T1, Estrogen-related receptor gamma (Homo sapiens, UniProt P62508)
T1 sequence (P62508 whole entry): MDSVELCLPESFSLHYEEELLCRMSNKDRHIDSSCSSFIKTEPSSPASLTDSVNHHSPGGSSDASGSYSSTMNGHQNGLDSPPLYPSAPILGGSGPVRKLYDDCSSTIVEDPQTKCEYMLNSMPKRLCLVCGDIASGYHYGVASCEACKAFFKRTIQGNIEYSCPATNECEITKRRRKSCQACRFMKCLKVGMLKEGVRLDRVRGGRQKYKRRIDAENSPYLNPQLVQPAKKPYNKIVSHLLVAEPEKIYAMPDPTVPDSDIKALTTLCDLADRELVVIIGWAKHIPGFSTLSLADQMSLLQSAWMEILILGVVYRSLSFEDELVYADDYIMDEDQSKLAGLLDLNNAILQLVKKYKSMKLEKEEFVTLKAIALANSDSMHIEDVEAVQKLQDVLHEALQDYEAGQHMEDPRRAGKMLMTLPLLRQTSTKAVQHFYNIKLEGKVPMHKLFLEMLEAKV
Description: Inhibition of fluorescien-conjugated coactivator PGC1a binding to GST-tagged human ERRgamma LBD after 1 hr by TR-FRET assay

in vitro [2] = conditions: rat, liver microsomes
Description: Metabolic stability in rat liver microsomes assessed as compound remaining at 1 uM after 30 mins in presence of NADPH by LC-MS/MS analysis

[3] = molecular target: T1, Estrogen-related receptor gamma; remark: listed apart in the source
Description: Inverse agonist activity at ERRgamma (unknown origin) expressed in human AD293 cells after 24 hrs by beta-galactosidase/luciferase reporter gene assay

CYP2C9 = CYP2C9 (Homo sapiens, UniProt P11712); test: Inhibition of CYP2C9 in human liver microsomes assessed as remaining activity by measuring tolbutamide 4-hydroxylase activity at 10 uM pre-incubated for 5 mins followed by NADPH regenerating system addition by LC-MS/MS analysis relative to control; format: ADME; conditions: probe tolbutamide (4-hydroxylation), read-out: Activity
Chain of CYP2C9 (P11712 whole entry): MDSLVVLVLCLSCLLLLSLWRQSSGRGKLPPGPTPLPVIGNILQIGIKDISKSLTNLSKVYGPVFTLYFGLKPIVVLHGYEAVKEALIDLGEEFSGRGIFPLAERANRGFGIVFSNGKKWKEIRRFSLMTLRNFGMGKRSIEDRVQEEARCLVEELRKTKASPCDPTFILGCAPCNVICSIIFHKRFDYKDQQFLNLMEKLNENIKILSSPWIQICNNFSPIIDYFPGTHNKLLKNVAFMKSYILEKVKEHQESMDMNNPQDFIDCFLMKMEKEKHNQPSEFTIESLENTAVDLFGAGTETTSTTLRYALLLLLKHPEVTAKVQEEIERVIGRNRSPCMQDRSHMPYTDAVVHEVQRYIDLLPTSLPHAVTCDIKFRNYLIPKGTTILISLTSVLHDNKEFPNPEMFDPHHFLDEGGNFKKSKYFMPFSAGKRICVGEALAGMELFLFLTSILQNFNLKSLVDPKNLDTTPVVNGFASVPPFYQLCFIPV

in vitro [4] = conditions: mouse, liver microsomes
Description: Metabolic stability in mouse liver microsomes assessed as compound remaining at 1 uM after 30 mins in presence of NADPH by LC-MS/MS analysis

CYP3A4 = CYP3A4 (Homo sapiens, UniProt P08684); test: Inhibition of CYP3A4 in human liver microsomes assessed as remaining activity by measuring midazolam 1'-hydroxylase activity at 10 uM pre-incubated for 5 mins followed by NADPH regenerating system addition by LC-MS/MS analysis relative to control; format: ADME; conditions: probe midazolam (1'-hydroxylation), read-out: Activity
Chain of CYP3A4 (P08684 whole entry): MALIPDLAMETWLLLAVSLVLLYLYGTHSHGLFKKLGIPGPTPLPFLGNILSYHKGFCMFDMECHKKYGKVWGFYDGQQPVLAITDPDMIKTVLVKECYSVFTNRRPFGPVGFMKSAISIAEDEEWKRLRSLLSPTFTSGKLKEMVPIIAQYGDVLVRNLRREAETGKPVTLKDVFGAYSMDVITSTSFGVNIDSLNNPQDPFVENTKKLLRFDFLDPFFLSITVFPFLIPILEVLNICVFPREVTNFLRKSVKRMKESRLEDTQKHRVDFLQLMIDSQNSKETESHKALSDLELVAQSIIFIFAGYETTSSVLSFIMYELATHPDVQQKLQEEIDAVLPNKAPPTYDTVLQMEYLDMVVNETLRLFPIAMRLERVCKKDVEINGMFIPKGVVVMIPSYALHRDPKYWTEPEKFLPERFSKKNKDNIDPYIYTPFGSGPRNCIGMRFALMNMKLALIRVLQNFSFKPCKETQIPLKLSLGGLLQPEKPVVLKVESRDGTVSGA

CYP2D6 = CYP2D6 (Homo sapiens, UniProt P10635); test: Inhibition of CYP2D6 in human liver microsomes assessed as remaining activity by measuring dextromethorphan O-demethylase activity at 10 uM pre-incubated for 5 mins followed by NADPH regenerating system addition by LC-MS/MS analysis relative to control; format: ADME; conditions: probe dextromethorphan (O-demethylation), read-out: Activity
Chain of CYP2D6 (P10635 whole entry): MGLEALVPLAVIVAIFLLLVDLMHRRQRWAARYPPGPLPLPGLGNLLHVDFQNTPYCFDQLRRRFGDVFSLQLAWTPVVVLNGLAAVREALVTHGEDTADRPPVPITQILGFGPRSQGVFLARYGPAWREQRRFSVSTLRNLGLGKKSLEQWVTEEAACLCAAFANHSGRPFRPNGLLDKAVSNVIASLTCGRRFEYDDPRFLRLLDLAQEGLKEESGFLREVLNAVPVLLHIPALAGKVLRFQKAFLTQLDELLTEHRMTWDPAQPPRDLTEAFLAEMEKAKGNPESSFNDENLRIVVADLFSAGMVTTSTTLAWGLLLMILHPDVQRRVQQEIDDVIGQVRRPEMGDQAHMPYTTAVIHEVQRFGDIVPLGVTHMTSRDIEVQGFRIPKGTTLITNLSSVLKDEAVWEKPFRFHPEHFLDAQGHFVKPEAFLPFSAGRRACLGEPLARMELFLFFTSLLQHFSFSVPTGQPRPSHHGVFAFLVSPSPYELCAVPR

in vitro [5] = conditions: human, liver microsomes
Description: Metabolic stability in human liver microsomes assessed as compound remaining at 1 uM after 30 mins in presence of NADPH by LC-MS/MS analysis

[6] = molecular target: T2, Steroid hormone receptor ERR2 (Homo sapiens, UniProt O95718); test: Inhibition of fluorescien-conjugated coactivator PGC1a binding to ERRbeta (unknown origin) after 1 hr by TR-FRET assay
T2 sequence (O95718 whole entry): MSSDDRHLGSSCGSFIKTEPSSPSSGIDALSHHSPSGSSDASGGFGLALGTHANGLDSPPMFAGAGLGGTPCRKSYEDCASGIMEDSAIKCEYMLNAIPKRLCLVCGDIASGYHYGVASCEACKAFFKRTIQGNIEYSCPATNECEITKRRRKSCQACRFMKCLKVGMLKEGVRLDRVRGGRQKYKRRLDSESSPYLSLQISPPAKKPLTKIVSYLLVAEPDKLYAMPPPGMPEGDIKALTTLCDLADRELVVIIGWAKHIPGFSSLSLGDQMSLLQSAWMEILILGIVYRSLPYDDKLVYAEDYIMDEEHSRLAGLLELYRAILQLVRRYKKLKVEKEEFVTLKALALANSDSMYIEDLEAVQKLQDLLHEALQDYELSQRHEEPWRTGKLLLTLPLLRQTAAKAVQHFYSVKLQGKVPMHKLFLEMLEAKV

[7] = Metabolic stability in dog liver microsomes assessed as compound remaining at 1 uM after 30 mins in presence of NADPH by LC-MS/MS analysis; format: ADME, Canis lupus familiaris; conditions: read-out: Stability
[8] = Permeability of the compound in PBS at pH 7.4 at 10 uM after 5 hrs by LC-MS/MS analysis; format: ADME; conditions: not told, read-out: permeability
CYP2C19 = CYP2C19 (Homo sapiens, UniProt P33261); test: Inhibition of CYP2C19 in human liver microsomes assessed as remaining activity by measuring S-mephenytoin 4-hydroxylase activity at 10 uM pre-incubated for 5 mins followed by NADPH regenerating system addition by LC-MS/MS analysis relative to control; format: ADME; conditions: probe S-mephenytoin (4-hydroxylation), read-out: Activity
Chain of CYP2C19 (P33261 whole entry): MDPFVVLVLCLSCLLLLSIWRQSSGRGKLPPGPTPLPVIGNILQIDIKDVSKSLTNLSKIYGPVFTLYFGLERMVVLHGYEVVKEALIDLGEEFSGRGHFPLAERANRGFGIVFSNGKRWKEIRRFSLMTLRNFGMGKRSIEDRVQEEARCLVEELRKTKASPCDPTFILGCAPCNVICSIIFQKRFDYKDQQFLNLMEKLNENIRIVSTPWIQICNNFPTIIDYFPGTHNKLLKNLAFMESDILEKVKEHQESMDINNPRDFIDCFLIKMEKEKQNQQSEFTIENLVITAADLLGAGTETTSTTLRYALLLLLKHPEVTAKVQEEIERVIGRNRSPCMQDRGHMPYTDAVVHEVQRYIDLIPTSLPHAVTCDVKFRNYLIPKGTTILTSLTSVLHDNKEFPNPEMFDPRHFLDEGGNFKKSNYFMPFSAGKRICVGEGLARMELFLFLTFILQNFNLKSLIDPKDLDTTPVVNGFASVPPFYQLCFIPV

[9] = molecular target: T3, Steroid hormone receptor ERR1 (Homo sapiens, UniProt P11474); test: Inhibition of fluorescien-conjugated coactivator PGC1a binding to ERRalpha (unknown origin) after 1 hr by TR-FRET assay
T3 sequence (P11474 whole entry): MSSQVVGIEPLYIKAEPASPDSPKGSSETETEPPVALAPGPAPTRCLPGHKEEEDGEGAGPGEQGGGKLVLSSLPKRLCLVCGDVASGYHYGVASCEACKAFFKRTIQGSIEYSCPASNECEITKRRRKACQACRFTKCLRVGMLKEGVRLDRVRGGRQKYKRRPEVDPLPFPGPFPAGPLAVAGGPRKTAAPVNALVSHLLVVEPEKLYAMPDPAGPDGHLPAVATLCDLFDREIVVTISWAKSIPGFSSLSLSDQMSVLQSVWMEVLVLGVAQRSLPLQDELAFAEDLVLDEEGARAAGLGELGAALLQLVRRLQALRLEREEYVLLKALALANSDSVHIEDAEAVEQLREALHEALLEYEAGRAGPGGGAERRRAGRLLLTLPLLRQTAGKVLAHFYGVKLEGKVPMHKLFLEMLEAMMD

CYP1A2 = molecular target: T4, CYP1A2 (Homo sapiens, UniProt P05177); test: Inhibition of CYP1A2 in human liver microsomes assessed as remaining activity by measuring phenacetin O-deethylase activity at 10 uM pre-incubated for 5 mins followed by NADPH regenerating system addition by LC-MS/MS analysis relative to control; format: ADME; conditions: probe phenacetin (O-deethylation), read-out: Activity
T4 sequence (P05177 whole entry): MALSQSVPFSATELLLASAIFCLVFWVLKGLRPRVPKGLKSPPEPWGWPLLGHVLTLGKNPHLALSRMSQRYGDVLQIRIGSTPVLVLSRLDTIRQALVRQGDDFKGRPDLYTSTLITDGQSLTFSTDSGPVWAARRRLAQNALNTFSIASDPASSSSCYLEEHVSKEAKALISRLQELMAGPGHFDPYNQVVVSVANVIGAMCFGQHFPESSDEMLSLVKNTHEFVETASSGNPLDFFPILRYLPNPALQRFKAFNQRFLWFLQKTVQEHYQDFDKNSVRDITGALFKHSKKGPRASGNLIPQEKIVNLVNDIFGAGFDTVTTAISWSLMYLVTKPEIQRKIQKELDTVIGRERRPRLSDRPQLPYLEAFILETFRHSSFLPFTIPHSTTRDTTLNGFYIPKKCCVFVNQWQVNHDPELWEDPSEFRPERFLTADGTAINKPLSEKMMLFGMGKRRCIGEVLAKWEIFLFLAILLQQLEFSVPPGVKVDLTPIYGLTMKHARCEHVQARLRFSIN

Compound: CN(C)CCOc1ccc(/C(=C(/CCCO)c2ccc3cnn(C)c3c2)c2ccc(Br)cc2)cc1
IC50 [1]: 5.3 µM

Compound: CN(C)CCOc1ccc(/C(=C(/CCCO)c2ccccc2)c2ccc(F)cc2)cc1
IC50 [1]: 3.9 µM

Compound: CN(C)CCOc1ccc(/C(=C(/CCCO)c2ccccc2)c2ccc(S(C)(=O)=O)cc2)cc1
IC50 [1]: > 10 µM

Compound: CN(C)CCOc1ccc(/C(=C(/CCCO)c2ccccc2)c2ccc(C#N)cc2)cc1
IC50 [1]: > 10 µM

Compound: Cc1ccc(/C(=C(\CCCO)c2ccc3cnn(C)c3c2)c2ccc(OCCN(C)C)cc2)cc1
IC50 [1]: 5.6 µM

Compound: Cc1ccc(/C(=C(\CCCO)c2cccnc2)c2ccc(OCCN(C)C)cc2)cc1
IC50 [1]: > 10 µM

Compound: CN(C)CCOc1ccc(/C(=C(/CCCO)c2cccnc2)c2ccc(Br)cc2)cc1
IC50 [1]: > 10 µM

Compounds with a lower IC50 [1], results first:

IC50 [1]: 0.89 µM
Compound: CN(C)CCOc1ccc(/C(=C(/CCC(F)F)c2ccccc2)c2ccc(Br)cc2)cc1

IC50 [1]: 1.1 µM
Compound: CN(C)CCOc1ccc(/C(=C(/CCCO)c2cccc(F)c2)c2ccc(Br)cc2)cc1

remaining at 0.5 h, 1 µM (in vitro [2]): 35%
IC50 [3]: 0.048 µM
activity at 10 µM (CYP2C9): 99%
remaining at 0.5 h, 1 µM (in vitro [4]): 24%
activity at 10 µM (CYP3A4): 93%
activity at 10 µM (CYP2D6): > 100%
remaining at 0.5 h, 1 µM (in vitro [5]): 72%
IC50 [6]: 0.722 µM
remaining at 0.5 h, 1 µM [7]: 21%
IC50 [1]: 0.02 µM
Papp at 5 h, 10 µM [8]: 2.12 ×10⁻⁶ cm/s
activity at 10 µM (CYP2C19): 72%
IC50 [9]: 8.01 µM
activity at 10 µM (CYP1A2): > 100%
Compound: CN(C)CCOc1ccc(/C(=C(/CCCF)c2ccccc2)c2ccc(O)cc2)cc1.Cl

IC50 [1]: 1 µM
Compound: COc1ccc(/C(=C(\CCCO)c2ccccc2)c2ccc(OCCN(C)C)cc2)cc1

IC50 [1]: 0.52 µM
Compound: CN(C)CCOc1ccc(/C(=C(/CCCO)c2ccccc2)c2ccc(Cl)cc2)cc1

remaining at 0.5 h, 1 µM (in vitro [2]): 19%
IC50 [3]: 0.058 µM
activity at 10 µM (CYP2C9): 90%
remaining at 0.5 h, 1 µM (in vitro [4]): 13%
activity at 10 µM (CYP3A4): 79%
activity at 10 µM (CYP2D6): 93%
remaining at 0.5 h, 1 µM (in vitro [5]): 72%
IC50 [6]: > 10 µM
remaining at 0.5 h, 1 µM [7]: 19%
IC50 [1]: 0.09 µM
Papp at 5 h, 10 µM [8]: 0.36 ×10⁻⁶ cm/s
activity at 10 µM (CYP2C19): 64%
IC50 [9]: > 10 µM
activity at 10 µM (CYP1A2): 96%
Compound: CN(C)CCCOc1ccc(/C(=C(/CCCO)c2ccccc2)c2ccc(O)cc2)cc1.Cl
